# Values quoted from earlier work, collected in patent US9763892B2, “Immediate release phospholipid-coated therapeutic agent nanoparticles and related methods” (Autotelic LLC, priority 2015, dated 2017).
# Details: phospholipid used for PTX-NPs
row,SMILES,Transition Temp. [°C]
1,"CCCCCCCCCCCCCCCC(=O)OC[C@H](COP(=O)([O-])OCC[N+](C)(C)C)OC(=O)CCCCCCCCCCCCCCC [PC 16, 1,2-dipalmitoyl-sn-glycero-3-phosphocholine]",41
2,"CCCCCCCCCCCC(=O)OC[C@H](COP(=O)([O-])OCC[N+](C)(C)C)OC(=O)CCCCCCCCCCC [PC-12, 1,2-dilauroyl-sn-glycero-3-phosphocholine]",−2
3,"CCCCCCCC/C=C\CCCCCCCC(=O)OC[C@H](COP(=O)([O-])OCC[N+](C)(C)C)OC(=O)CCCCCCC/C=C\CCCCCCCC [PC-18 (unsaturated), 1,2-dioleoyl-sn-glycero-3-phosphocholine]",−17

# Other lines, results leading:
row,Transition Temp. [°C],SMILES
1,24,"CCCCCCCCCCCCCC(=O)OC[C@H](COP(=O)([O-])OCC[N+](C)(C)C)OC(=O)CCCCCCCCCCCCC [PC-14, 1,2-dimyristoyl-sn-glycero-3-phosphocholine]"
2,66,"CCCCCCCCCCCCCCCCCCCC(=O)OC[C@H](COP(=O)([O-])OCC[N+](C)(C)C)OC(=O)CCCCCCCCCCCCCCCCCCC [PC-20, 1,2-diarachidoyl-sn-glycero-3-phosphocholine]"
